From patent US20120244568A1, “LABEL-FREE RIGID CELL ASSAY METHOD” (priority 2011, published 2012) come the findings set out here.

What all share (type): cell-based
Assay [1] has as its system Saccharomyces cerevisiae S288C yeast cells. The experiment in a line: turbidometric determination with a visible light spectrophotometer (absorbance OD580) of DRCA assay samples. Conditions: 10 micromolar, FIG. 7. From the text:
FIG. 7 charts absorbance readings of a conventional turbidometric determination using a visible light spectrophotometer, for cultured yeast cells without amphotericin (left; amphotericin at 0 micromolar) and contacted with amphotericin (right; amphotericin at 10 micromolar). Turbidity can be used as an indirect measure of cell growth. Using a standard curve generated with serial dilutions of known number cells, one can estimate cell density in a turbid cell culture.
(§1) The samples from the aforementioned DRCA assay were further analyzed with a spectrophotometer (Agilent Technologies, Wilmington, Del.) and hemocytometer (Thermo Fisher Scientific, Hudson, N.H.). […] With amphotericin treatment, the cell number was about zero, compared to about 12,000,000 cells in the untreated sample, see FIG. 8 (yeast cell count by hemocytometer) for amphotericin (80) and no amphotericin (82) at each of three wavelengths.

For assay [2] the test system is unchanged. Put plainly: label-free DRCA multi-wavelength SPR yeast cell assay (response to a substance).
Assay [3] shares this test system. The description is as above. As to conditions: 10 micromolar; for effect on yeast cell growth: 4,000 cells per well, pre-incubated 60 minutes; for effect on yeast cell growth / effect on yeast cell growth measured at short penetration depth: FIG. 4; for effect on yeast cell growth compared with the other modulators: consistent at three different penetration depths, versus fluconazole and ketaconazole; for effect on yeast cell growth measured at short penetration depth: 660 nm laser source. The procedure: Yeast cells were cultured on an YPD agar plate at 28° C. for 16 hours and kept at 4° C. until just prior to use. From the agar plate, yeast cells were collected and seeded into YPD liquid medium and cultured at 28° C. for 8 hours. The cells were then diluted with its liquid medium to obtain a cell density of about 4,000 cells/mL as a starting point for cell inhibition studies. For the detection of yeast cells, the cells were collected at the late logarithm phase and collected by centrifugation at 10,000 g for 10 minutes. Cells were further washed to remove debris and/or high index material such as glucose.
A DRCA™ system equipped with three lasers having wavelengths of, for example, 660 nm, 980 nm, and 1480 nm, was selected for the study. The system allows for simultaneously measuring a cell at three different wavelengths. The output measures the angular change of the surface plasmon resonance (SPR). The angular change indicates a mass change within the defined sensing region. The depth of the sensing region depends on the wavelength of the selected illuminating laser as listed, for example, in Table 1.
A user-assembled assay plate was first assembled with a gold coated glass slide and an 80-well holey plate (cut from a 384-well holey plate). Yeast cells were seeded into the wells with or without a compound and incubated in the instrument for approximately 60 minutes at 22° C. The cell responses were then measured and data were collected according to the description in the aforementioned U.S. Ser. No. 12/956,464.
A procedure for accomplishing a label-free rigid cell assay response to a substance in accord with the present disclosure can include, for example: • 1. clean and assemble an 80-well holey plate on top of a gold chip; • 2. sterile the assembled chip by exposure to high intensity UV light for around 5 minutes; • 3. grow yeast cells until the middle or late logarithm stage, preferably the former for an active inoculum; • 4. turn on the DRCA optical system to warm-up the lasers for, e.g., 1 hour; • 5. collect yeast cell by centrifugation at, e.g., 10,000 g for 10 minutes; • 6. wash the cells with at least 5× fold volume of the pellet using a saline buffer, such as phosphate saline buffer; • 7. vortex the cell solution using, for example, a bench top vortex mixer; • 8. collect yeast cells by centrifugation at e.g. 10,000 g for 10 minutes; • 9. repeat steps 6 to 8 for approximately three (3) times to remove high refractive index materials, such as, sugar residues, cell debris, or like materials, and mixtures thereof; • 10. count yeast cell number using, e.g., a hemocytometer • 11. prepare assay buffer with or without a substance (compound/bio-molecule); • 12. load assay buffer with or without a substance (compound/bio-molecule) to each well of the cell chamber and let it equilibrate for, e.g., 60 minutes; • 13. record the baselines for, e.g., 15 minutes; • 14. add a small amount of yeast cells, such as 4000 cells/mL to each well; • 15. monitor the yeast cell response, for example, to an added substance, with a plurality of wavelengths and depths; • 16. record the data; and • 17. analyze the data by calculating the difference between the end points and baselines.
Four modulator compounds were used to study of their effect on yeast cells. A user assembled (i.e., a virtual) assay plate was seeded with 4,000 cells per well. A modulator was added to a test well at 10 micromolar and then pre-incubated for 60 minutes. Each modulator was tested in three replicates. The well without a modulator was a positive control. […] However, the difference between the modulators and controls was more substantial when measured at the longest penetration depth using the 1480 nm laser source. […] Accordingly, the disclosed method can be useful for drug screening, drug development, and like applications.
Time course of a modulator effect. The effect of an amphotericin compound on yeast cells was monitored in real time under ambient condition. […]

Assay [4] has the same test system. The experiment in a line: yeast cell count by hemocytometer of DRCA assay samples. Conditions: with amphotericin treatment; FIG. 8; untreated sample about 12,000,000 cells.
From the text: as §1

Where two headings read alike, the source gives them in different places.

Consider `C[C@@H]1[C@H](O)[C@@H](C)/C=C/C=C/C=C/C=C/C=C/C=C/C=C/[C@H](O[C@@H]2O[C@H](C)[C@@H](O)[C@H](N)[C@@H]2O)C[C@@H]2O[C@](O)(C[C@@H](O)C[C@@H](O)[C@H](O)CC[C@@H](O)C[C@@H](O)CC(=O)O[C@H]1C)C[C@H](O)[C@H]2C(=O)O` [amphotericin, Amphotericin], for which, in assay [1], the “cell growth by turbidity” value is listed as “cell growth was inhibited”. For the same compound, the OD580 absorbance reading result in assay [1] (untreated sample about 12) is on record as “about zero”. In addition, the IC50 in assay [2] (read-out: IC50 (inhibition curve, yeast cells), 660 nm wavelength, about 4000 cells/well, 3,000 nM serially diluted at 3 fold, R^2=0.9072) was found to be 374 nM; in assay [2] (read-out: IC50 (inhibition curve, yeast cells), 980 nm wavelength, about 4000 cells/well, 3,000 nM serially diluted at 3 fold, R^2=0.9486), 271 nM; in assay [2] (read-out: IC50 (inhibition curve, yeast cells), 1480 nm wavelength, about 4000 cells/well, 3,000 nM serially diluted at 3 fold, R^2=0.9817) it was 158 nM. Moreover, the “effect on yeast cell growth” value in assay [3] is “had an effect on yeast cell growth”. The “change in response over time (time course)” value in assay [3] (about 16 hours, any given penetration depth (660, 980, 1480 nm), FIG. 5) was “almost no change in response”. Besides, the “effect on yeast cell growth compared with the other modulators” value in assay [3] is reported as “more noticeable effect”. Besides, in assay [4], the cell number entry was “about zero”.
Consider `OC(Cn1cncn1)(Cn1cncn1)c1ccc(F)cc1F` [fluconazole], for which, in assay [3], the “effect on yeast cell growth measured at short penetration depth” value is recorded as “not detectable” and the “effect on yeast cell growth” value is recorded as “had an effect on yeast cell growth”.
With `Clc1ccccc1C(c1ccccc1)(c1ccccc1)n1ccnc1` [clotrimazole], in assay [3], the “effect on yeast cell growth” value is given as “had an effect on yeast cell growth” and the “effect on yeast cell growth compared with the other modulators” value is “more noticeable effect”.
For `CC(=O)N1CCN(c2ccc(OCC3COC(Cn4ccnc4)(c4ccc(Cl)cc4Cl)O3)cc2)CC1` (stereo not drawn) [ketaconazole], in assay [3], the “effect on yeast cell growth measured at short penetration depth” value is “not detectable” and the “effect on yeast cell growth” value is on record as “had an effect on yeast cell growth”.
